What was measured:
3T3-fibroblast cells = assay: Cytotoxicity in 3T3-fibroblast cells, time course (XTT method); type: cell-based, murine
Experimental: Cloned tumor cells of P388 leukemia, L1210 leukemia, L5178Y lymphoma, Colon26-M3.1 carcinoma, and B16-BL6 melanoma, from mice, and K562 leukemia, liver carcinoma HEP-G2, Hs578T breast cancer, AN-3-CA adenocarcinoma, DLD colon carcinoma, and HeLa epitheloid carcinoma, from human beings, were cultured in EMM, DMEM, or RMPI-1640 culture media containing 7.5% fetal bovine serum (FBS), as described in ATCC manual. […] Tumor cells in test wells were incubated in 5% CO2 incubator at 37° C. for 2 days.
For further study of the cytotoxicity of each substance on cloned tumor cells, 3T3-fibroblast cells were cultured in test wells as described in experiment 1.

[1] = system: colon26-M3.1 carcinoma cells; assay: Inhibitory effect of intravenously-administered HD-2 on cancer metastasis (lung); type: in vivo, mice
Experimental: B16-BL6 melanoma cells or colon26-M3.1 carcinoma cells were inoculated into mice and number of metastatic tumor masses appearing in lungs was counted. […] The peak activity was observed a: 1-mg dose with very high anticancer efficacy (86%). […] This indicated oral administration of HD-2 was quite effective for treatment of established cancer.
In this experiment, HD-2 was administered intravenously with dosage less than 500 mg/kg body weight per day.

[2] = 1 μg intravenous administration +1
[3] = 10 μg intravenous administration +1
[4] = 10 μg intravenous administration +7
[5] = 100 μg intravenous administration +1

For `N.N.[Cl][Pt][Cl]` [cisplatin, reference compound], the “morphological observation of cells” value (3T3-fibroblast cells; 3T3, 34 hours of treatment) was “partial necrosis of tumor cells or slowing of tumor growth”, the tumor growth (3T3-fibroblast cells; 3T3, after 24 hours of administration) was “partial inhibition of tumor growth” and the inhibitory rate [1, 2] was 34.2%. For the same compound, the “number of metastatic mass, mean ± SD” value [1, 2] was 102 ± 28, the inhibitory rate [1, 3] was 87.1% and the “number of metastatic mass, mean ± SD” value [1, 3] was 20 ± 13. For the same compound, the inhibitory rate [1, 4] was 50.0%, the “number of metastatic mass, mean ± SD” value [1, 4] was 77 ± 12 and the inhibitory rate [1, 5] was 63.2%. The “number of metastatic mass, mean ± SD” value [1, 5] was 57 ± 22.

Source: patent US7261906B2, “Anti-cancer therapy agent of arsenic hexoxide (As4O6) of a natural chemical substance and its pharmaceutical composition” (priority 1998, dated 2007)
